Reference: US5925369A, “Bis alkanoyl esters of carnitine having bactericidal, fungicidal and antiprotozoal activity” (priority 1996, dated 1999)
Read-outs that look alike come from different tables or passages of the source.

Legend:
Trichomonas vaginalis = assay: MIC on protozoa (Trichomonas vaginalis); assay type: cell-based; settings: for MIC: Trichomonas vaginalis
Procedure: Protozoal suspensions are prepared from 24-hour cultures grown at 37° C. and 5% CO2 in DIAMOND T.Y.M. broth supplemented with 10% heat-inactivated FCS.
The suspensions are adjusted, in the same medium, to a final concentration of 2.5×10^5 cells/ml in each well of a 96-well microtiter plate. Substance dilutions (0.3 log) are added to the suspensions in order to have a range of final concentrations from 0.19 to 100 mcg/ml. Microtiters are then incubated at 37° C. and 5% CO2 for 24 hours. MIC is referred to as the minimal concentration inhibiting either protozoa or flagella or undulating membrane motility (Cf. JULIANO C., MARTINOTTI M. G., […] P., In vitro effect of microtubule inhibitors on T. vaginalis, Microbiologia, 8:31-42, 1985. LOVGREN T. and SALMELA I., Invitro sensitivity of T. vaginalis and C. albicans to chemotherapeutic agents, Acta Path. Microbiol. Scand.. 86:155-158, 1978).

Tr. rubrum = assay: MIC on dermatophytes; assay type: cell-based; settings: Trichophyton rubrum, read-out: Minimal Inhibitory Concentration
Procedure: (§1) Mycelium fragments, micro and macroaleuriospores are harvested from 7-day fungal cultures grown at 30 ° C. in Potato Dextrose agar by washing them with Sabouraud broth and 0.5% Tween 80. After a coarse filtration and washing, the fungal suspension is resuspended in Yeast Nitrogen Base supplemented with asparagine and glucose (YNBs) to yield a final concentration of 1.0×10^5 infective units/ml in a microtiter plate. The substances (0.3 log dilutions in Y.N.B.s.) are added to the fungal suspensions in order to generate a range of final concentrations from 0.19 to 100 mcg/ml. The microtiter plates are then incubated at 30° C. for 96-120 hours.

Tr. mentagrophytes = assay: MIC on dermatophytes; assay type: cell-based; settings: Trichophyton mentagrophytes, read-out: Minimal Inhibitory Concentration
Procedure: as §1

Tr. quinckeanum = assay: MIC on dermatophytes; assay type: cell-based; settings: Tr. quinckeanum NCPF 309, lab collection; read-out: Minimal Inhibitory Concentration
Procedure: as §1

Microsporum canis = assay: MIC on dermatophytes; assay type: cell-based; settings: read-out: Minimal Inhibitory Concentration
Procedure: as §1

Epidermoph. floccosum = assay: MIC on dermatophytes; assay type: cell-based; settings: read-out: Minimal Inhibitory Concentration
Procedure: as §1

mouse scarified skin = assay: Dermal tolerability after repeated treatments (10 days) on mouse scarified skin; assay type: in vivo, CD1 mice; settings: 1% gel; for Cracking (C), mean score / Desquamation (D), mean score / Erythema (E), mean score: scale 0-3, 50 mg/day
Procedure: Male CD1 mice (C. RIVER), aged 6 weeks, were used (5 animals per group).
Substance formulations (1% of test article) were prepared in gel (Hydroxyethyl-cellulose, 2.5 gr.; Glycerin, 7.0 gr.; Propylene Glycol, 7.0 gr.; water up to 100 ml).
The central dorsal zone of the animals was first shaved, and then gently abraded with a scalpel blade. Treatment was performed 1 day following the dermal abrasion by administering 50 mg of each substance formulation once a day, for 10 consecutive days. The treated skin areas were examined at 5, 7, 9, and 11 days following scarification. The evaluation was based upon grading of the lesions as […] (E), DESQUAMATION (D), and CRACKING (C), according to the following scale:
The mean of the values of each parameter in the same animal group allowed us to evaluate the tissue damage provoked by the substance under examination.

filamentous fungi = assay: MIC on filamentous fungi (all strains); assay type: cell-based; settings: for MIC: lab collection, 5 strains
Procedure: The conidia are collected from 72-hour cultures in Sabouraud agar by washing them with Sabouraud broth and 0.5% Tween 80. After a coarse filtration and washing, the resulting suspensions are adjusted to a final concentration of approx. 5.0×10^4 CFU/ml in a microtiter plate. The substances (0.3 log dilutions in Y.N.B.s.) are added to the fungal suspensions in order to generate a range of final concentrations from 0.19 to 100 mcg/ml. The microtiter plates are then incubated at 35° C. for 48-72 hours.

[1] = T. vaginalis SS-2, read-out: Minimal Inhibitory Concentration
[2] = T. vaginalis SS-9, read-out: Minimal Inhibitory Concentration
[3] = T. vaginalis SS-20, Metronidazole resistant, read-out: Minimal Inhibitory Concentration
[4] = T. vaginalis SS-22, Metronidazole resistant, read-out: Minimal Inhibitory Concentration
[5] = T. vaginalis, 4 strains, read-out: Mean MIC
[6] = Tr. rubrum IDI D 0222, clinical isolate (onychomycosis, left and right big toes)
[7] = Tr. rubrum IDI D 0252, clinical isolate (impetigo, left arm; prior Rifocin)
[8] = Tr. rubrum IDI D 0261, clinical isolate (dyshidrotic eczema, right foot)
[9] = Tr. rubrum IDI D 1017, clinical isolate (onychomycosis, right big toe; prior Azolmen)
[10] = Tr. rubrum IDI D 1150, clinical isolate (epidermophytosis; prior Gentalyn)
[11] = Tr. rubrum IDI D 1155, clinical isolate
[12] = Tr. rubrum SG 13 III, clinical isolate (Tinea pedis)
[13] = Tr. mentagrophytes IDI D 1027, clinical isolate (impetiginous eczema, chin)
[14] = Tr. mentagrophytes IDI D 1049, clinical isolate
[15] = Tr. mentagrophytes IDI D 1101, clinical isolate (epidermatomycosis, face)
[16] = Tr. mentagrophytes SG 3 I, clinical isolate (Tinea pedis)
[17] = Tr. mentagrophytes SG 4 II, clinical isolate (Tinea cruris)
[18] = Tr. mentagrophytes SG 5 III, clinical isolate (Tinea pedis)
[19] = Tr. mentagrophytes SG 8 II, clinical isolate (Tinea cruris)
[20] = Microsporum canis IDI D 0238, clinical isolate (tricophytosis, right arm; prior Nerisona)
[21] = Microsporum canis IDI D 1011, clinical isolate (eczema, neck; prior Gentalyn and cortisone)
[22] = Microsporum canis IDI D 1123, clinical isolate (epidermophytosis, back; prior Gentalyn)
[23] = Microsporum canis IMM 3868, lab collection
[24] = Epidermoph. floccosum IDI D 0011, clinical isolate (epidermophytosis, foot interdigital)
[25] = Epidermoph. floccosum SG 3 III, clinical isolate
[26] = Epidermoph. floccosum SG 6 II, clinical isolate (Tinea pedis)

For `CCCCCCCCCCCOC(=O)C[C@H](C[N+](C)(C)C)OC(=O)CC(C)C` [ST 1103, isovaleryl L-carnitine undecyl ester methanesulfonate, reference compound], the MIC (Trichomonas vaginalis; [1]) was 25 µg/mL, the MIC (Trichomonas vaginalis; [2]) was 25 µg/mL and the MIC (Trichomonas vaginalis; [3]) was 25 µg/mL. The MIC (Trichomonas vaginalis; [4]) was 25 µg/mL, the MIC (Trichomonas vaginalis; [5]) was 25 µg/mL and the MIC (Tr. rubrum; [6]) was 12.5 µg/mL. It also gave an MIC (Tr. rubrum; [7]) of 25 µg/mL, an MIC (Tr. rubrum; [8]) of 12.5 µg/mL and an MIC (Tr. rubrum; [9]) of 12.5 µg/mL. It also gave an MIC (Tr. rubrum; [10]) of 12.5 µg/mL, an MIC (Tr. rubrum; [11]) of 3.12 µg/mL and an MIC (Tr. rubrum; [12]) of 12.5 µg/mL. The MIC (Tr. mentagrophytes; [13]) was 12.5 µg/mL, the MIC (Tr. mentagrophytes; [14]) was 12.5 µg/mL and the MIC (Tr. mentagrophytes; [15]) was 12.5 µg/mL. For the same compound, the MIC (Tr. mentagrophytes; [16]) was 12.5 µg/mL, the MIC (Tr. mentagrophytes; [17]) was 12.5 µg/mL and the MIC (Tr. mentagrophytes; [18]) was 12.5 µg/mL. The MIC (Tr. mentagrophytes; [19]) was 12.5 µg/mL, the MIC (Tr. quinckeanum) was 6.25 µg/mL and the MIC (Microsporum canis; [20]) was 25 µg/mL. It also gave an MIC (Microsporum canis; [21]) of 12.5 µg/mL, an MIC (Microsporum canis; [22]) of 12.5 µg/mL and an MIC (Microsporum canis; [23]) of 12.5 µg/mL. For the same compound, the MIC (Epidermoph. floccosum; [24]) was 12.5 µg/mL, the MIC (Epidermoph. floccosum; [25]) was 25 µg/mL and the MIC (Epidermoph. floccosum; [26]) was 12.5 µg/mL. The “Cracking (C), mean score” value (mouse scarified skin; day +5) was 0, the “Desquamation (D), mean score” value (mouse scarified skin; day +5) was 0.4 and the “Erythema (E), mean score” value (mouse scarified skin; day +5) was 1.2. For the same compound, the “Cracking (C), mean score” value (mouse scarified skin; day +7) was 0, the “Desquamation (D), mean score” value (mouse scarified skin; day +7) was 0.4 and the “Erythema (E), mean score” value (mouse scarified skin; day +7) was 0.4. For the same compound, the “Cracking (C), mean score” value (mouse scarified skin; day +9) was 0, the “Desquamation (D), mean score” value (mouse scarified skin; day +9) was 0 and the “Erythema (E), mean score” value (mouse scarified skin; day +9) was 0. The “Cracking (C), mean score” value (mouse scarified skin; day +11) was 0, the “Desquamation (D), mean score” value (mouse scarified skin; day +11) was 0 and the “Erythema (E), mean score” value (mouse scarified skin; day +11) was 0. For the same compound, the MIC (filamentous fungi) was 18.8 µg/mL.

For `CCCCCCCCCCC(=O)O[C@H](CC(=O)OCc1ccc(COC(=O)C[C@H](C[N+](C)(C)C)OC(=O)CCCCCCCCCC)cc1)C[N+](C)(C)C` [ST 1226, bis(undecanoyl L-carnitine chloride)p-xylilene diester], the “greater (fold) activity than ST 1103” value (Trichomonas vaginalis; T. vaginalis, ST 1226 vs ST 1103) was 2 fold, the MIC (Trichomonas vaginalis; [1]) was 12.5 µg/mL and the MIC (Trichomonas vaginalis; [2]) was 12.5 µg/mL. The MIC (Trichomonas vaginalis; [3]) was 12.5 µg/mL, the MIC (Trichomonas vaginalis; [4]) was 12.5 µg/mL and the MIC (Trichomonas vaginalis; [5]) was 12.5 µg/mL. It also gave an MIC (Tr. rubrum; [6]) of 1.56 µg/mL, an MIC (Tr. rubrum; [7]) of 1.56 µg/mL and an MIC (Tr. rubrum; [8]) of 1.56 µg/mL. For the same compound, the MIC (Tr. rubrum; [9]) was 1.56 µg/mL, the MIC (Tr. rubrum; [10]) was 1.56 µg/mL and the MIC (Tr. rubrum; [11]) was 1.56 µg/mL. The MIC (Tr. rubrum; [12]) was 1.56 µg/mL, the MIC (Tr. mentagrophytes; [13]) was 3.12 µg/mL and the MIC (Tr. mentagrophytes; [14]) was 1.56 µg/mL. It also gave an MIC (Tr. mentagrophytes; [15]) of 1.56 µg/mL, an MIC (Tr. mentagrophytes; [16]) of 1.56 µg/mL and an MIC (Tr. mentagrophytes; [17]) of 1.56 µg/mL. It also gave an MIC (Tr. mentagrophytes; [18]) of 3.12 µg/mL, an MIC (Tr. mentagrophytes; [19]) of 1.56 µg/mL and an MIC (Tr. quinckeanum) of 1.56 µg/mL. For the same compound, the MIC (Microsporum canis; [20]) was 12.5 µg/mL, the MIC (Microsporum canis; [21]) was 3.12 µg/mL and the MIC (Microsporum canis; [22]) was 1.56 µg/mL. For the same compound, the MIC (Microsporum canis; [23]) was 1.56 µg/mL, the MIC (Epidermoph. floccosum; [24]) was 12.5 µg/mL and the MIC (Epidermoph. floccosum; [25]) was 6.25 µg/mL. For the same compound, the MIC (Epidermoph. floccosum; [26]) was 6.25 µg/mL, the “dermal tolerability compared with ST 1103” value (mouse scarified skin; 10 days) was “better tolerated than ST1103” and the “Cracking (C), mean score” value (mouse scarified skin; day +5) was 0. For the same compound, the “Desquamation (D), mean score” value (mouse scarified skin; day +5) was 0, the “Erythema (E), mean score” value (mouse scarified skin; day +5) was 0.2 and the “Cracking (C), mean score” value (mouse scarified skin; day +7) was 0. For the same compound, the “Desquamation (D), mean score” value (mouse scarified skin; day +7) was 0, the “Erythema (E), mean score” value (mouse scarified skin; day +7) was 0 and the “Cracking (C), mean score” value (mouse scarified skin; day +9) was 0. The “Desquamation (D), mean score” value (mouse scarified skin; day +9) was 0, the “Erythema (E), mean score” value (mouse scarified skin; day +9) was 0 and the “Cracking (C), mean score” value (mouse scarified skin; day +11) was 0. The “Desquamation (D), mean score” value (mouse scarified skin; day +11) was 0, the “Erythema (E), mean score” value (mouse scarified skin; day +11) was 0 and the MIC (filamentous fungi) was 8.43 µg/mL. For the same compound, the “activity compared with ST 1103” value (filamentous fungi; single results and mean MIC) was “markedly higher activity than ST 1103”.
